Experiments:
Assay in all cases: selective drug sensitivity score (sDSS, relative to normal bone marrow) (sDSS (score)); higher = more potent and effective on the cell line relative to normal bone marrow cells
Settings in all cases: 72 h
HAL-01 = system: HAL-01
KOPN-8 = system: KOPN-8
TMD5 = system: TMD5
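Further: ALL cell lines in 384-well plates, five doses spanning 10,000-fold, each plate scaled between vehicle and 100 µmol/L benzalkonium chloride controls, sDSS an adapted area-under-curve metric.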

Row | SMILES | selective drug sensitivity score (HAL-01) | selective drug sensitivity score (KOPN-8) | selective drug sensitivity score (TMD5)
1 | C=CC(=O)Nc1cccc(Nc2nc(Nc3ccc(N4CCN(C(C)=O)CC4)cc3OC)ncc2C(F)(F)F)c1 [Rociletinib] (top concentration 10000 nM) | 0.14 | 1.14 | -2.06
2 | c1cn2cc(-c3ccc4cn[nH]c4c3)nc(Nc3ccc(N4CCOCC4)cc3)c2n1 [Entospletinib] (top concentration 5000 nM) | -0.64 | 1.46 | -0.64
3 | O=C(O)CC[C@H]1CC[C@@](c2cc(F)ccc2F)(S(=O)(=O)c2ccc(Cl)cc2)CC1 [MK-0752] (top concentration 1000 nM) | 3.5 | 0 | 0
4 | C=CC(=O)Nc1cc(Nc2nccc(-c3cn(C)c4ccccc34)n2)c(OC)cc1N(C)CCN(C)C [Osimertinib] (top concentration 2500 nM) | -0.42 | -0.82 | 2.98
5 | CNC(=O)c1ccc(N2C(=S)N(c3cnc(C#N)c(C(F)(F)F)c3)C(=O)C23CCC3)cc1F [Apalutamide] (top concentration 10000 nM) | 0 | 0 | 0
6 | COc1cc(C)c(/C=C/C(C)=C/C=C/C(C)=C/C(=O)O)c(C)c1C [Acitretin] (top concentration 10000 nM) | -1.6 | 1.8 | -1.6
7 | O=C(O)c1ccc(CN2CCC(CN[C@@H]3C[C@H]3c3ccccc3)CC2)cc1 (top concentration 100000 nM) | -0.62 | -0.62 | -0.62
8 | Cc1nc(=O)c2cc(CN(C)c3ccc(C(=O)N[C@@H](CCC(=O)O)C(=O)O)s3)ccc2[nH]1 [Raltitrexed] (top concentration 1000 nM) | 21.2 | 28.4 | -0.68
9 | CNC(=O)c1ccc(C)c(-n2c(C)cc(OCc3ccc(F)cc3F)c(Br)c2=O)c1 (top concentration 1000 nM) | 2.6 | 0.7 | 0
10 | CCN1CCN(c2ccc(Nc3cc(N(C)C(=O)Nc4c(Cl)c(OC)cc(OC)c4Cl)ncn3)cc2)CC1 [Infigratinib] (top concentration 1000 nM) | 0 | 0 | 0
11 | C[C@]1(O)C[C@@H](c2nc(-c3ccc4ccc(-c5ccccc5)nc4c3)c3c(N)nccn32)C1 [Linsitinib] (top concentration 10000 nM) | -1.78 | -0.38 | 1.62
12 | C=CC(=O)Nc1cccc(Oc2nc(Nc3ccc(N4CCN(C)CC4)cc3)nc3ccsc23)c1 [Olmutinib] (top concentration 1000 nM) | 5.78 | -0.02 | -0.02
13 | Cc1ccc(-n2nc(C(C)(C)C)cc2NC(=O)Nc2ccc(OCCN3CCOCC3)c3ccccc23)cc1 [Doramapimod] (top concentration 10000 nM) | -0.24 | 3.76 | -0.14
14 | CC[C@@H]1[C@H](F)C(=O)N[C@@H]1COc1nccc2cc(C(N)=O)c(OC)cc12 (top concentration 10000 nM) | -1.32 | 1.78 | -1.32
15 | CC(O)(CS(=O)(=O)c1ccc(F)cc1)C(=O)Nc1ccc(C#N)c(C(F)(F)F)c1 (stereo not given) [Bicalutamide] (top concentration 10000 nM) | -1.68 | 4.92 | -0.88
16 | CC1(C)C(C(=O)Nc2ccc(S(=O)(=O)c3ccc(NC(=O)C4C(C)(C)C4(C)C)cc3)cc2)C1(C)C [BRD7116] (top concentration 10000 nM) | 3.36 | -0.24 | 0.66
17 | Cc1nc2cccc(N)c2c(=O)n1C1CCC(=O)NC1=O (stereo not given) [Avadomide (CC122)] (top concentration 10000 nM) | 1.6 | 1.3 | 3.5
18 | Nc1cccc2c1C(=O)N(C1CCC(=O)NC1=O)C2=O (stereo not given) [Pomalidomide] (top concentration 10000 nM) | -0.26 | -0.26 | -0.26

Row | SMILES | selective drug sensitivity score (HAL-01) | selective drug sensitivity score (KOPN-8) | selective drug sensitivity score (TMD5)
19 | CCc1c(C(=O)C(N)=O)c2c(OCC(=O)O)cccc2n1Cc1ccccc1 [Varespladib] (top concentration 10000 nM) | -0.84 | -0.84 | -0.84
20 | O=C1NC(=O)[C@@H](c2cn3c4c(cccc24)CCC3)[C@@H]1c1c[nH]c2ccccc12 [Tivantinib] (top concentration 1000 nM) | 5.78 | 3.08 | 5.38
21 | CCOc1ccn(-c2ccc(F)cc2)c(=O)c1C(=O)Nc1ccc(Oc2ccnc(N)c2Cl)c(F)c1 (top concentration 2500 nM) | 0.1 | 0 | 0
22 | CCCCCCCCc1ccc(CCC(N)(CO)CO)cc1 [Fingolimod] (top concentration 10000 nM) | 1.88 | 3.18 | 0.48
23 | O=C(NOCCO)c1ccc2cncn2c1Nc1ccc(I)cc1F [GDC-0623] (top concentration 2500 nM) | 3.1 | -1.2 | -0.7
24 | CC(=O)O[C@H]1C(=O)[C@@]2(C)[C@H]([C@H](OC(=O)c3ccccc3)[C@]3(O)C[C@H](OC(=O)[C@H](O)[C@@H](NC(=O)c4ccccc4)c4ccccc4)C(C)=C1C3(C)C)[C@]1(OC(C)=O)CO[C@@H]1C[C@@H]2O [Paclitaxel] (top concentration 1000 nM) | 0.74 | 22.4 | 8.14
25 | O=C(Nc1cc(Cl)cc2c1[nH]c1cnccc12)c1cccnc1 [PS-1145] (top concentration 25000 nM) | 2.14 | -0.46 | -0.46
26 | O=C(O)CC1CC(c2ccccc2)=NO1 (stereo not given) [VGX-1027] (top concentration 10000 nM) | -0.04 | -0.04 | -0.04
27 | O=c1ncn2nc(Sc3ccc(F)cc3F)ccc2c1-c1c(Cl)cccc1Cl [Neflamapimod] (top concentration 10000 nM) | 2.5 | 4 | 0
28 | Cc1c2oc3c(C)ccc(C(=O)N[C@@H]4C(=O)N[C@H](C(C)C)C(=O)N5CCC[C@H]5C(=O)N(C)CC(=O)N(C)[C@@H](C(C)C)C(=O)O[C@@H]4C)c3nc-2c(C(=O)N[C@@H]2C(=O)N[C@H](C(C)C)C(=O)N3CCC[C@H]3C(=O)N(C)CC(=O)N(C)[C@@H](C(C)C)C(=O)O[C@@H]2C)c(N)c1=O [Dactinomycin] (top concentration 1000 nM) | 1.04 | 17.8 | 7.84
29 | COc1cc(N2CCN(C)CC2)ccc1Nc1nccc(-c2cn(C)c3cnccc23)n1 [AZ191] (top concentration 10000 nM) | 0.88 | 2.18 | -4.32
30 | CCCCCCCCCCCCCCCCCCOP(=O)([O-])OC1CC[N+](C)(C)CC1 [Perifosine] (top concentration 2500 nM) | -0.26 | -0.26 | -0.36
31 | C[C@@H]1CCN(C(=O)CC#N)C[C@@H]1N(C)c1ncnc2[nH]ccc12 [Tofacitinib] (top concentration 5000 nM) | -7.86 | -7.66 | -7.86
32 | CC[C@H](CO)Nc1nc(NCc2ccccc2)c2ncn(C(C)C)c2n1 [Seliciclib] (top concentration 10000 nM) | -0.34 | 4.26 | -1.04
33 | CC(C)C[C@H](NC(=O)[C@@H](COC(C)(C)C)NC(=O)[C@H](Cc1ccc(O)cc1)NC(=O)[C@H](CO)NC(=O)[C@H](Cc1c[nH]c2ccccc12)NC(=O)[C@H](Cc1cnc[nH]1)NC(=O)[C@@H]1CCC(=O)N1)C(=O)N[C@@H](CCCNC(=N)N)C(=O)N1CCC[C@H]1C(=O)NNC(N)=O [Goserelin] (top concentration 10000 nM) | -0.06 | -0.06 | -0.06
34 | C[C@H]1C[C@@H](n2c(Nc3ccc(OC(F)(F)F)cc3)nc3cc(CCC(=O)O)ccc32)CC(C)(C)C1 (top concentration 10000 nM) | 1.16 | 0.06 | -0.14
35 | Clc1ccc(C(c2ccccc2Cl)C(Cl)Cl)cc1 (stereo not given) [Mitotane] (top concentration 10000 nM) | 0.62 | 4.32 | -0.08
